Key:
[1] = biological target: Ribosomal protein S6 kinase alpha-1 (Homo sapiens) (UniProt Q15418); settings: Compound concentration 1000.0 nM
[2] = biological target: 5-hydroxytryptamine receptor 2B (Homo sapiens, UniProt P41595); settings: Compound concentration 10.0 uM
[3] = biological target: Tyrosine-protein kinase TXK (Homo sapiens) (UniProt P42681); settings: Compound concentration 1000.0 nM
[4] = biological target: Myosin light chain kinase 2, skeletal/cardiac muscle (Homo sapiens) (UniProt Q9H1R3); settings: Compound concentration 1000.0 nM
[5] = biological target: T1, Alpha-1A adrenergic receptor (Homo sapiens) (UniProt P35348); settings: Compound concentration 10.0 uM
T1 sequence (whole entry): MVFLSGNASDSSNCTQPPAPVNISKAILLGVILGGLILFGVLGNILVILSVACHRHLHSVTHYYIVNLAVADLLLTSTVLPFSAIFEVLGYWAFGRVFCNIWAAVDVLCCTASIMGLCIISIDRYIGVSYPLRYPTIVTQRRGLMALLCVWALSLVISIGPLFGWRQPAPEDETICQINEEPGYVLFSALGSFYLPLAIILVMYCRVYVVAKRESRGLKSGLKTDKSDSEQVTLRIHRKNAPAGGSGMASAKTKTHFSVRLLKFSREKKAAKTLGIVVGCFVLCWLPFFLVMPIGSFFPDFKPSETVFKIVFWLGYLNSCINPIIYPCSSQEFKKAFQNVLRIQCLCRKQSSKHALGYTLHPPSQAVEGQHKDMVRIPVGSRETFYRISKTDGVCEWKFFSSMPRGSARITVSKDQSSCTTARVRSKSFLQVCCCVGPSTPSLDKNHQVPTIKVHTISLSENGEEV

[6] = biological target: cAMP-dependent protein kinase catalytic subunit beta (Homo sapiens) (UniProt P22694); settings: Compound concentration 1000.0 nM
[7] = biological target: Myosin-IIIa (Homo sapiens) (UniProt Q8NEV4); settings: Compound concentration 1000.0 nM
[8] = biological target: Proto-oncogene tyrosine-protein kinase Src (Homo sapiens) (UniProt P12931); settings: Compound concentration 1000.0 nM
[9] = biological target: Ribosomal protein S6 kinase beta-1 (Homo sapiens) (UniProt P23443); settings: Compound concentration 1000.0 nM
[10] = biological target: Tyrosine-protein kinase receptor UFO (Homo sapiens) (UniProt P30530); settings: Compound concentration 1000.0 nM
[11] = biological target: Cyclin-dependent kinase 11A (Homo sapiens) (UniProt Q9UQ88); settings: Compound concentration 1000.0 nM
[12] = biological target: Non-receptor tyrosine-protein kinase TYK2 (Homo sapiens) (UniProt P29597); settings: Compound concentration 1000.0 nM
[13] = biological target: Dual specificity protein kinase CLK4 (Homo sapiens) (UniProt Q9HAZ1); settings: Compound concentration 1000.0 nM
[14] = biological target: Mitogen-activated protein kinase kinase kinase 12 (Homo sapiens) (UniProt Q12852); settings: Compound concentration 1000.0 nM
[15] = biological target: Hormonally up-regulated neu tumor-associated kinase (Homo sapiens) (UniProt P57058); settings: Compound concentration 1000.0 nM
[16] = biological target: AP2-associated protein kinase 1 (Homo sapiens) (UniProt Q2M2I8); settings: Compound concentration 1000.0 nM
[17] = biological target: Receptor tyrosine-protein kinase erbB-2 (Homo sapiens) (UniProt P04626); settings: Compound concentration 1000.0 nM
[18] = biological target: Serine/threonine-protein kinase SBK1 (Homo sapiens) (UniProt Q52WX2); settings: Compound concentration 1000.0 nM
[19] = biological target: Serine/threonine-protein kinase 3 (Homo sapiens) (UniProt Q13188); settings: Compound concentration 1000.0 nM
[20] = biological target: Serine/threonine-protein kinase SIK3 (Homo sapiens) (UniProt Q9Y2K2); settings: Compound concentration 1000.0 nM
[21] = biological target: Serine/threonine-protein kinase RIO3 (Homo sapiens) (UniProt O14730); settings: Compound concentration 1000.0 nM
[22] = biological target: Mitogen-activated protein kinase kinase kinase kinase 2 (Homo sapiens) (UniProt Q12851); settings: Compound concentration 1000.0 nM
[23] = biological target: Angiopoietin-1 receptor (Homo sapiens) (UniProt Q02763); settings: Compound concentration 1000.0 nM
[24] = biological target: Tyrosine-protein kinase Lyn (Homo sapiens) (UniProt P07948); settings: Compound concentration 1000.0 nM
[25] = biological target: Homeodomain-interacting protein kinase 3 (Homo sapiens) (UniProt Q9H422); settings: Compound concentration 1000.0 nM
[26] = biological target: G protein-coupled receptor kinase 3 (Homo sapiens) (UniProt P35626); settings: Compound concentration 1000.0 nM
[27] = test system: Mast/stem cell growth factor receptor Kit (Homo sapiens), P10721 [D816V]; settings: Compound concentration 1000.0 nM
[28] = biological target: Fibroblast growth factor receptor 4 (Homo sapiens) (UniProt P22455); settings: Compound concentration 1000.0 nM
[29] = test system: Tyrosine-protein kinase ABL1 (Homo sapiens), P00519 [F317L]; settings: Compound concentration 1000.0 nM
[30] = biological target: Fibroblast growth factor receptor 3 (Homo sapiens) (UniProt P22607); settings: Compound concentration 1000.0 nM
[31] = biological target: Ribosomal protein S6 kinase alpha-4 (Homo sapiens) (UniProt O75676); settings: Compound concentration 1000.0 nM
[32] = biological target: Insulin receptor-related protein (Homo sapiens) (UniProt P14616); settings: Compound concentration 1000.0 nM
[33] = test system: eIF-2-alpha kinase GCN2 (Homo sapiens), Q9P2K8 [S808G]; settings: Compound concentration 1000.0 nM
[34] = biological target: Mitogen-activated protein kinase kinase kinase 3 (Homo sapiens) (UniProt Q99759); settings: Compound concentration 1000.0 nM
[35] = biological target: Serine/threonine-protein kinase NLK (Homo sapiens) (UniProt Q9UBE8); settings: Compound concentration 1000.0 nM
[36] = biological target: 5-hydroxytryptamine receptor 1D (Homo sapiens) (UniProt P28221); settings: Compound concentration 10.0 uM
[37] = biological target: Mitogen-activated protein kinase 13 (Homo sapiens) (UniProt O15264); settings: Compound concentration 1000.0 nM
[38] = biological target: Serine/threonine-protein kinase WNK1 (Homo sapiens) (UniProt Q9H4A3); settings: Compound concentration 1000.0 nM
[39] = biological target: Serine/threonine-protein kinase LATS2 (Homo sapiens) (UniProt Q9NRM7); settings: Compound concentration 1000.0 nM

5-hydroxytryptamine receptor 2B, sequence (P41595 whole entry): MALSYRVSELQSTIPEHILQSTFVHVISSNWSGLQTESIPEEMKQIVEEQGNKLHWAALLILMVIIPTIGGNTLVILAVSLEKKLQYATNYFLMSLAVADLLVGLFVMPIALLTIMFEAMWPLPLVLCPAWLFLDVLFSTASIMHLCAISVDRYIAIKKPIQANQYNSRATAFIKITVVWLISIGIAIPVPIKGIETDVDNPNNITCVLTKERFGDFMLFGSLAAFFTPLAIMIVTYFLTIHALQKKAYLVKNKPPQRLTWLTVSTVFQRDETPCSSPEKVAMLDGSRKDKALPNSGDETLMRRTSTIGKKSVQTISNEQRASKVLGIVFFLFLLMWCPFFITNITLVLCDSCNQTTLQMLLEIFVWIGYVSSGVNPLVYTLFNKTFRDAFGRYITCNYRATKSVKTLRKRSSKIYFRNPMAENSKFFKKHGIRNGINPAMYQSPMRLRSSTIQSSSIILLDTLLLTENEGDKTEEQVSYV
Ribosomal protein S6 kinase beta-1 (Homo sapiens), sequence (P23443 whole entry, looked up): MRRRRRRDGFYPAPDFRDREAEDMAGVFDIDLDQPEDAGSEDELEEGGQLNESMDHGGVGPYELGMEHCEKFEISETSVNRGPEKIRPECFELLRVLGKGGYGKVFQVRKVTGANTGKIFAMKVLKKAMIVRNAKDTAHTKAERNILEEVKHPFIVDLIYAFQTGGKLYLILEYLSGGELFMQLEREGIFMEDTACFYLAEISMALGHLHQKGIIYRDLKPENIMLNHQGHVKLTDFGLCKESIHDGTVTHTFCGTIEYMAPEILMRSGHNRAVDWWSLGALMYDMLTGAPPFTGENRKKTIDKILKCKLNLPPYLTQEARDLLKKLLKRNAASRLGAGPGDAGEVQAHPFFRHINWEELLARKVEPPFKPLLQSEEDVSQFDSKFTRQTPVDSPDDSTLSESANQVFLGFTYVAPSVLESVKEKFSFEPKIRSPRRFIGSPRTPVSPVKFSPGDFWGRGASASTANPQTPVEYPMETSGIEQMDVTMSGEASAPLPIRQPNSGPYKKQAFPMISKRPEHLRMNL
Tyrosine-protein kinase ABL1 (Homo sapiens), P00519 [F317L], sequence (P00519 whole entry F317L): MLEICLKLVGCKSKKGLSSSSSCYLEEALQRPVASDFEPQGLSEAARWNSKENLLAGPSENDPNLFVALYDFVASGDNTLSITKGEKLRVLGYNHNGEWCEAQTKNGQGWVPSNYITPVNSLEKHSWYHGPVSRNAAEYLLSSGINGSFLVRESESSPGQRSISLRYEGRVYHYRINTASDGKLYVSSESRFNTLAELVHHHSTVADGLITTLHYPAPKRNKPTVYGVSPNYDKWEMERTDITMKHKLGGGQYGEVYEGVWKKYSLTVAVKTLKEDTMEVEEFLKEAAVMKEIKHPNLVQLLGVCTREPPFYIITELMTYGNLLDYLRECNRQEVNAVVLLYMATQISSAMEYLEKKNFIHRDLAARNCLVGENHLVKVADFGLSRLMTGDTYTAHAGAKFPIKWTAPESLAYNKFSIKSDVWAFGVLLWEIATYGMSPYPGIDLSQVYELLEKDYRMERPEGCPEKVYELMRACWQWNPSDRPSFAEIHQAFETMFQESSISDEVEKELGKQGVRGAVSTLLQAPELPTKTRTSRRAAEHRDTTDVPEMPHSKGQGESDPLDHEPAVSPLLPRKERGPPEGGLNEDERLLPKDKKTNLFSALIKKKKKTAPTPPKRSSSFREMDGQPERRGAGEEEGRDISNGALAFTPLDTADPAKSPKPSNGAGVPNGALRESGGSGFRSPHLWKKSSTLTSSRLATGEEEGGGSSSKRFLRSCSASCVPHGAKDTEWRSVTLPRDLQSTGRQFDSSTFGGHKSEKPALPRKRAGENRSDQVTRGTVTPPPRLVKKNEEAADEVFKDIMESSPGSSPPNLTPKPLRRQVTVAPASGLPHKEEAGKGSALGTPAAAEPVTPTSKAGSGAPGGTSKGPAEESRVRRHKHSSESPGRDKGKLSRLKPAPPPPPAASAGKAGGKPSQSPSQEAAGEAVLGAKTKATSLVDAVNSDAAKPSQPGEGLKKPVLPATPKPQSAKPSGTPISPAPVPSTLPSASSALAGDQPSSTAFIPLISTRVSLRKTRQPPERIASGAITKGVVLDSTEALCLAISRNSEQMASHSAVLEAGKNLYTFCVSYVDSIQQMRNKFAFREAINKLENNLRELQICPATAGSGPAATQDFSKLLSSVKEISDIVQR
Proto-oncogene tyrosine-protein kinase Src (Homo sapiens), sequence (P12931 2-536 limits assumed): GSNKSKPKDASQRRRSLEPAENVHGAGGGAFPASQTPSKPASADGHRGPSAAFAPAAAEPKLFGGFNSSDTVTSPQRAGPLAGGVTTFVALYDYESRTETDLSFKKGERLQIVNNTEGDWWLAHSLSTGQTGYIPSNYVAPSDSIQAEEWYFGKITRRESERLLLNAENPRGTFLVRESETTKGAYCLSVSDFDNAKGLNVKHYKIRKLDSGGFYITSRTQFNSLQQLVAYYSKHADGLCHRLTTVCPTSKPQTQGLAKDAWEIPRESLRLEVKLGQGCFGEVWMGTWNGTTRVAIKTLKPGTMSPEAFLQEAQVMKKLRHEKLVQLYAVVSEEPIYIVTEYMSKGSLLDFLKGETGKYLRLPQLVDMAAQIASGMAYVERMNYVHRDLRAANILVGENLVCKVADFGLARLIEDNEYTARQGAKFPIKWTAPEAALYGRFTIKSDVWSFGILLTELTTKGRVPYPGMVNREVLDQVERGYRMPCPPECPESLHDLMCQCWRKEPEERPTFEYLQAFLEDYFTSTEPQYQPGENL
Insulin receptor-related protein (Homo sapiens), sequence (P14616 27-742 limits assumed): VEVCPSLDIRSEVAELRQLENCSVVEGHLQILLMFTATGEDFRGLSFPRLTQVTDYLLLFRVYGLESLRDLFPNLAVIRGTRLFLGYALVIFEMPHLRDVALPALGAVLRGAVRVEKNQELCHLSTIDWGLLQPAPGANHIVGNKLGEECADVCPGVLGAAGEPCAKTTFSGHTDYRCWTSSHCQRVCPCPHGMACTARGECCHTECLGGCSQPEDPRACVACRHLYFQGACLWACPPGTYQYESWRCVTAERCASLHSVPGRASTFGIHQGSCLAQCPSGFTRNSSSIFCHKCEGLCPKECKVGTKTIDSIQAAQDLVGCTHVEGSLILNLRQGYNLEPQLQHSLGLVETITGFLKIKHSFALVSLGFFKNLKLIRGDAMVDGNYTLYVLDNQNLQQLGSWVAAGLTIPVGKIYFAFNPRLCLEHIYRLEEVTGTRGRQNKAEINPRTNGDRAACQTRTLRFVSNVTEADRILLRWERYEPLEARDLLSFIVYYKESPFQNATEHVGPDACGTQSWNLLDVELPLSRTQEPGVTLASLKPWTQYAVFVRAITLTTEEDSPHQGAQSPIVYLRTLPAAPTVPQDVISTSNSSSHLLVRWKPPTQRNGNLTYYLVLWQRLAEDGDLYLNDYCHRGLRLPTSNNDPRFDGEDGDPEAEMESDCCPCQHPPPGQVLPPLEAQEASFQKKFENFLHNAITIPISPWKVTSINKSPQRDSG
Insulin receptor-related protein (Homo sapiens), sequence (P14616 747-1297 limits assumed): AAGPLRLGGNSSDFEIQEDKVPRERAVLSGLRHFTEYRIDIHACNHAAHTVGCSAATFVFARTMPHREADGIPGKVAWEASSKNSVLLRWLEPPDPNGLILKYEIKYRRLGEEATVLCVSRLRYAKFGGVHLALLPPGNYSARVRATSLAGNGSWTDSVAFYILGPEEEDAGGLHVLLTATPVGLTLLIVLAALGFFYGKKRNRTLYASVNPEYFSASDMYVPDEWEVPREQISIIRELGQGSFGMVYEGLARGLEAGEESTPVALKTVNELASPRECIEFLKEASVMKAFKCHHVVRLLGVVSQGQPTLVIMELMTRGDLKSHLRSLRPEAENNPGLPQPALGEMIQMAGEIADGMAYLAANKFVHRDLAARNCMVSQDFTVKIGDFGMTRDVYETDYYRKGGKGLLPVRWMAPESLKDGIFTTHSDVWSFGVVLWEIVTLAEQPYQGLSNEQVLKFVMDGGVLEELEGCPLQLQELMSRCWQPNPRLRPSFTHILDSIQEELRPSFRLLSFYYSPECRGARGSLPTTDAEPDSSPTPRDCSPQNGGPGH
Mitogen-activated protein kinase kinase kinase kinase 2 (Homo sapiens), sequence (Q12851 whole entry): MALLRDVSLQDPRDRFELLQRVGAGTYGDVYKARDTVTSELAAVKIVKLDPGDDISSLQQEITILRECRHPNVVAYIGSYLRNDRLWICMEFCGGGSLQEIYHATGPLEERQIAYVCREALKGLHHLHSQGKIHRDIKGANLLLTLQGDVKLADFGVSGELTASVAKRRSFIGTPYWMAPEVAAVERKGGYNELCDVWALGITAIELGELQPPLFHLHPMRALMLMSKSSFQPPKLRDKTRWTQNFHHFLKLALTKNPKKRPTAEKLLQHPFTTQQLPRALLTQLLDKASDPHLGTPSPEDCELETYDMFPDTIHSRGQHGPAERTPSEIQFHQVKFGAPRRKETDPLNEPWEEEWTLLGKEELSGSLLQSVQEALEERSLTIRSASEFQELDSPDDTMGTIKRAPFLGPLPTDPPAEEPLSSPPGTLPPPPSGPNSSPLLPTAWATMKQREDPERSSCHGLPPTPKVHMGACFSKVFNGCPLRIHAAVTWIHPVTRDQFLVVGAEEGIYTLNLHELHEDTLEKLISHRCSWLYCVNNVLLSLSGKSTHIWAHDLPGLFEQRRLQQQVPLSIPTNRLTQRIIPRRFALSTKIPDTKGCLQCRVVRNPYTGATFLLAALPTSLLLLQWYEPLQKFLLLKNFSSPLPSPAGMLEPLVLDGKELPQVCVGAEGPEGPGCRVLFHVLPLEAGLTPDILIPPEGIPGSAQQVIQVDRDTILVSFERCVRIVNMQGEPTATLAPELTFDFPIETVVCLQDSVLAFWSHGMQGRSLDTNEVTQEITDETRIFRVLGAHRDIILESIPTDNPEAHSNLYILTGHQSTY

SMILES | residual activity [1] | inhibition [2] | residual activity [3] | residual activity [4] | inhibition [5] | residual activity [6] | residual activity [7] | residual activity [8] | residual activity [9] | residual activity [10] | residual activity [11] | residual activity [12] | residual activity [13] | residual activity [14] | residual activity [15] | residual activity [16] | residual activity [17] | residual activity [18] | residual activity [19] | residual activity [20] | also measured
O=C(Nc1ccc(Oc2ccc(F)cc2)cc1)N1CCc2ncccc2[C@H]1c1ccc(F)cc1 [BAY-897] | 92% | 52.4% | 100% | 100% | 16.2% | 83% | 100% | 91% | 100% | 77% | 92% | 100% | 100% | 100% | 99% | 95% | 100% | 89% | 94% | 100% | residual activity [21]: 96%; residual activity [22]: 95%; residual activity [23]: 100%; residual activity [24]: 95%; residual activity [25]: 92%; residual activity [26]: 95%; residual activity [27]: 100%; residual activity [28]: 95%; residual activity [29]: 70%; residual activity [30]: 83%; residual activity [31]: 94%; residual activity [32]: 94%; residual activity [33]: 100%; residual activity [34]: 87%; residual activity [35]: 87%; inhibition [36]: 43.3%; residual activity [37]: 96%; residual activity [38]: 96%; residual activity [39]: 100%
O=C(Nc1cnc(Oc2ccc(F)cc2)nc1)N1CCc2ncccc2[C@@H]1c1ccc(F)cc1 [BAY-899] | 76% | 37.6% | 87% | 90% | -3.5% | 85% | 100% | 93% | 89% | 76% | 91% | 100% | 100% | 100% | 100% | 91% | 80% | 100% | 100% | 86% | residual activity [21]: 89%; residual activity [22]: 100%; residual activity [23]: 93%; residual activity [24]: 82%; residual activity [25]: 90%; residual activity [26]: 96%; residual activity [27]: 98%; residual activity [28]: 98%; residual activity [29]: 81%; residual activity [30]: 89%; residual activity [31]: 91%; residual activity [32]: 84%; residual activity [33]: 85%; residual activity [34]: 97%; residual activity [35]: 73%; inhibition [36]: 4.38%; residual activity [37]: 100%; residual activity [38]: 100%; residual activity [39]: 99%

Source: ChEMBL document CHEMBL4507317, “Data for DCP probe BAY-899” (2021)
